From PubChem BioAssay AID1259407 (Chemical Carcinogenesis Research Information System (CCRIS), 2018)
Active and inactive are the calls of the source. No rule for the calls is given here.

Test system: CCRIS mutagenicity, Ames/micronucleus/aberration tests
Assay: CCRIS mutagenicity studies
[1] = Test System: AMES SALMONELLA TYPHIMURIUM, Strain/Indicator: TA100, Metabolic Activation: NONE, Method: STANDARD PLATE
[2] = Test System: AMES SALMONELLA TYPHIMURIUM, Strain/Indicator: TA98, Metabolic Activation: NONE, Method: PREINCUBATION
[3] = Test System: AMES SALMONELLA TYPHIMURIUM, Strain/Indicator: TA100, Metabolic Activation: NONE, Method: PREINCUBATION
[4] = Test System: AMES SALMONELLA TYPHIMURIUM, Strain/Indicator: TA98, Metabolic Activation: NONE, Method: STANDARD PLATE
[5] = Test System: AMES SALMONELLA TYPHIMURIUM, Strain/Indicator: TA98, Metabolic Activation: RAT, LIVER, S-9, AROCLOR 1254, Method: STANDARD PLATE
[6] = Test System: AMES SALMONELLA TYPHIMURIUM, Strain/Indicator: TA100, Metabolic Activation: RAT, LIVER, S-9, AROCLOR 1254, Method: STANDARD PLATE
[7] = Test System: AMES SALMONELLA TYPHIMURIUM, Strain/Indicator: TA1535, Metabolic Activation: NONE, Method: STANDARD PLATE
[8] = Test System: AMES SALMONELLA TYPHIMURIUM, Strain/Indicator: TA1537, Metabolic Activation: NONE, Method: STANDARD PLATE
[9] = Test System: AMES SALMONELLA TYPHIMURIUM, Strain/Indicator: TA1537, Metabolic Activation: RAT, LIVER, S-9, AROCLOR 1254, Method: STANDARD PLATE

FC(F)(F)C(F)(F)C(F)(F)C(F)(F)I
mutagenic call (End Point: IN VITRO CHROMOSOMAL ABERRATIONS, Test System: HUMAN PERIPHERAL BLOOD LYMPHOCYTES, Metabolic Activation: NONE): inactive; negative | mutagenic call (End Point: IN VITRO CHROMOSOMAL ABERRATIONS, Test System: HUMAN PERIPHERAL BLOOD LYMPHOCYTES, Metabolic Activation: RAT, LIVER, S-9, AROCLOR 1254): inactive; negative | mutagenic call (Test System: AMES SALMONELLA TYPHIMURIUM, Strain/Indicator: TA98, Metabolic Activation: NONE): inactive; negative | mutagenic call (Test System: AMES SALMONELLA TYPHIMURIUM, Strain/Indicator: TA98, Metabolic Activation: RAT, LIVER, S-9, AROCLOR 1254): inactive; negative | mutagenic call (Test System: AMES SALMONELLA TYPHIMURIUM, Strain/Indicator: TA100, Metabolic Activation: NONE): inactive; negative | mutagenic call (Test System: AMES SALMONELLA TYPHIMURIUM, Strain/Indicator: TA100, Metabolic Activation: RAT, LIVER, S-9, AROCLOR 1254): inactive; negative | mutagenic call (Test System: AMES SALMONELLA TYPHIMURIUM, Strain/Indicator: TA1535, Metabolic Activation: NONE): inactive; negative | mutagenic call (Test System: AMES SALMONELLA TYPHIMURIUM, Strain/Indicator: TA1535, Metabolic Activation: RAT, LIVER, S-9, AROCLOR 1254): inactive; negative | mutagenic call (Test System: AMES SALMONELLA TYPHIMURIUM, Strain/Indicator: TA1537, Metabolic Activation: NONE): inactive; negative | mutagenic call (Test System: AMES SALMONELLA TYPHIMURIUM, Strain/Indicator: TA1537, Metabolic Activation: RAT, LIVER, S-9, AROCLOR 1254): inactive; negative | mutagenic call (Test System: E. COLI, Strain/Indicator: WP2UVRA, Metabolic Activation: NONE): inactive; negative | mutagenic call (Test System: E. COLI, Strain/Indicator: WP2UVRA, Metabolic Activation: RAT, LIVER, S-9, AROCLOR 1254): inactive; negative

CN(OC(=O)c1ccccc1)c1ccc(N=Nc2ccccc2)cc1
mutagenic call (Test System: AMES SALMONELLA TYPHIMURIUM, Strain/Indicator: TA98, Metabolic Activation: RAT, LIVER, S-9, KC500 OR PHENOBARBITAL, Method: LIQUID SUSPENSION): active; positive | mutagenic call (Test System: AMES SALMONELLA TYPHIMURIUM, Strain/Indicator: TA100, Metabolic Activation: RAT, LIVER, S-9, KC500 OR PHENOBARBITAL, Method: LIQUID SUSPENSION): active; positive

CCOC(=O)C(C)Br (configuration not stated)
mutagenic call [1]: active; positive

Cc1ccc(Cl)cc1[N+](=O)[O-]
mutagenic call [2]: inactive; negative | mutagenic call (Test System: AMES SALMONELLA TYPHIMURIUM, Strain/Indicator: TA98, Metabolic Activation: RAT, LIVER, S-9, KANECHLOR 500, Method: PREINCUBATION): inactive; negative | mutagenic call [3]: inactive; negative | mutagenic call (Test System: AMES SALMONELLA TYPHIMURIUM, Strain/Indicator: TA100, Metabolic Activation: RAT, LIVER, S-9, KANECHLOR 500, Method: PREINCUBATION): inactive; negative

N#[N+]c1cccc2c1C(=O)c1ccccc1C2=O
mutagenic call [4]: inactive; negative | mutagenic call [5]: active; positive | mutagenic call [1]: inactive; negative | mutagenic call [6]: active; positive | mutagenic call [7]: inactive; negative | mutagenic call [8]: active; positive | mutagenic call [9]: active; positive

O=c1[nH]c2ccccc2o1
mutagenic call (Test System: AMES SALMONELLA TYPHIMURIUM, Strain/Indicator: TA98, Metabolic Activation: HAMSTER, LIVER, S-9, AROCLOR 1254, Method: STANDARD PLATE): inactive; negative | mutagenic call [4]: inactive; negative | mutagenic call [5]: inactive; negative | mutagenic call (Test System: AMES SALMONELLA TYPHIMURIUM, Strain/Indicator: TA100, Metabolic Activation: HAMSTER, LIVER, S-9, AROCLOR 1254, Method: STANDARD PLATE): inactive; negative | mutagenic call [1]: inactive; negative | mutagenic call [6]: inactive; negative | mutagenic call (Test System: AMES SALMONELLA TYPHIMURIUM, Strain/Indicator: TA1535, Metabolic Activation: HAMSTER, LIVER, S-9, AROCLOR 1254, Method: STANDARD PLATE): inactive; negative | mutagenic call [7]: inactive; negative | mutagenic call (Test System: AMES SALMONELLA TYPHIMURIUM, Strain/Indicator: TA1535, Metabolic Activation: RAT, LIVER, S-9, AROCLOR 1254, Method: STANDARD PLATE): inactive; negative | mutagenic call (Test System: AMES SALMONELLA TYPHIMURIUM, Strain/Indicator: TA1537, Metabolic Activation: HAMSTER, LIVER, S-9, AROCLOR 1254, Method: STANDARD PLATE): inactive; negative | mutagenic call [8]: inactive; negative | mutagenic call [9]: inactive; negative | mutagenic call (Test System: AMES SALMONELLA TYPHIMURIUM, Strain/Indicator: TA1538, Metabolic Activation: HAMSTER, LIVER, S-9, AROCLOR 1254, Method: STANDARD PLATE): inactive; negative | mutagenic call (Test System: AMES SALMONELLA TYPHIMURIUM, Strain/Indicator: TA1538, Metabolic Activation: NONE, Method: STANDARD PLATE): inactive; negative | mutagenic call (Test System: AMES SALMONELLA TYPHIMURIUM, Strain/Indicator: TA1538, Metabolic Activation: RAT, LIVER, S-9, AROCLOR 1254, Method: STANDARD PLATE): inactive; negative | mutagenic call (Test System: MOUSE LYMPHOMA, Strain/Indicator: L5178Y (TK+/TK-), Metabolic Activation: NONE, Method: SUSPENSION/PLATE): active; positive. reevaluation of results: equivocal | mutagenic call (Test System: MOUSE LYMPHOMA, Strain/Indicator: L5178Y (TK+/TK-), Metabolic Activation: RAT, LIVER, S-9, AROCLOR 1254, Method: SUSPENSION/PLATE): inactive; negative. reevaluation of results: negative

C=CC(=O)OCC(C)C
mutagenic call (Test System: AMES SALMONELLA TYPHIMURIUM, Strain/Indicator: TA98, Metabolic Activation: HAMSTER, LIVER, S-9, AROCLOR 1254 (10%), Method: PREINCUBATION): inactive; negative | mutagenic call [2]: inactive; negative | mutagenic call (Test System: AMES SALMONELLA TYPHIMURIUM, Strain/Indicator: TA98, Metabolic Activation: RAT, LIVER, S-9, AROCLOR 1254 (10%), Method: PREINCUBATION): inactive; negative | mutagenic call (Test System: AMES SALMONELLA TYPHIMURIUM, Strain/Indicator: TA100, Metabolic Activation: HAMSTER, LIVER, S-9, AROCLOR 1254 (10%), Method: PREINCUBATION): inactive; negative | mutagenic call [3]: inactive; negative | mutagenic call (Test System: AMES SALMONELLA TYPHIMURIUM, Strain/Indicator: TA100, Metabolic Activation: RAT, LIVER, S-9, AROCLOR 1254 (10%), Method: PREINCUBATION): inactive; negative | mutagenic call (Test System: AMES SALMONELLA TYPHIMURIUM, Strain/Indicator: TA1535, Metabolic Activation: HAMSTER, LIVER, S-9, AROCLOR 1254 (10%), Method: PREINCUBATION): inactive; negative | mutagenic call (Test System: AMES SALMONELLA TYPHIMURIUM, Strain/Indicator: TA1535, Metabolic Activation: NONE, Method: PREINCUBATION): inactive; negative | mutagenic call (Test System: AMES SALMONELLA TYPHIMURIUM, Strain/Indicator: TA1535, Metabolic Activation: RAT, LIVER, S-9, AROCLOR 1254 (10%), Method: PREINCUBATION): inactive; negative | mutagenic call (Test System: AMES SALMONELLA TYPHIMURIUM, Strain/Indicator: TA1537, Metabolic Activation: HAMSTER, LIVER, S-9, AROCLOR 1254 (10%), Method: PREINCUBATION): inactive; negative | mutagenic call (Test System: AMES SALMONELLA TYPHIMURIUM, Strain/Indicator: TA1537, Metabolic Activation: NONE, Method: PREINCUBATION): inactive; negative | mutagenic call (Test System: AMES SALMONELLA TYPHIMURIUM, Strain/Indicator: TA1537, Metabolic Activation: RAT, LIVER, S-9, AROCLOR 1254 (10%), Method: PREINCUBATION): inactive; negative

CCN(N=O)C(=O)N(C)C
mutagenic call [7]: active; positive | mutagenic call (Test System: AMES SALMONELLA TYPHIMURIUM, Strain/Indicator: TA1535, Metabolic Activation: RAT, LIVER, S-9, BETA-NAPHTHOFLAVONE AND PHENOBARBITAL, Method: STANDARD PLATE): active; positive
